Assays:
[1] = molecular target: T1, Replicase polyprotein 1ab (Severe acute respiratory syndrome coronavirus 2, UniProt P0DTD1); experiment: SARS-CoV-2 Coronavirus 3C Protease FRET Assay
Procedure: IC50 values were calculated by fitting a curve of Vmax to experimental values with the controls (DMSO) as the top and bottom limits of the curve. […] GraphPad Prism is the analysis tool for all measurements.

[2] = molecular target: T1, Replicase polyprotein 1ab; experiment: SARS-CoV-2 in Vero E6

| Compound | Ki [1] | EC50 [2] |
| --- | --- | --- |
| COc1ccc(OCC(=O)N2C[C@@H]3CCC[C@@H]3C2C(=O)N[C@H](C=O)C[C@@H]2CCNC2=O)cc1 (stereo partly specified) [WO2022021841, 17] | 20 nM | 24700 nM |
| O=C[C@H](C[C@@H]1CCNC1=O)NC(=O)C1[C@H]2CCC[C@H]2CN1C(=O)CCc1cc(F)cc(F)c1 (stereo partly specified) [WO2022021841, 19] | 11 nM | 5630 nM |
| COc1ccc(OCC(=O)N2C[C@H]3[C@@H](C2C(=O)N[C@H](C=O)C[C@@H]2CCNC2=O)C3(C)C)cc1OC (stereo partly specified) [WO2022021841, 20] | 12 nM | 1730 nM |
| Cc1cc(Cl)ccc1OCC(=O)N1C[C@@H]2CCC[C@H]2C1C(=O)N[C@H](C=O)C[C@@H]1CCNC1=O (stereo partly specified) [WO2022021841, 24] | 22 nM | 1500 nM |
| O=C[C@H](C[C@@H]1CCNC1=O)NC(=O)C1[C@@H]2CCC[C@H]2CN1C(=O)COc1ccc(Cl)cc1 (stereo partly specified) [WO2022021841, 26] | 9 nM | 670 nM |
| CC1(C)[C@@H]2C(C(=O)N[C@H](C=O)C[C@@H]3CCNC3=O)N(C(=O)COc3ccc4ccccc4c3)C[C@@H]21 (stereo partly specified) [WO2022021841, 27] | 54 nM | 1270 nM |
| COc1ccc(OCC(=O)N2C[C@H]3[C@@H](C2C(=O)N[C@H](C=O)C[C@@H]2CCNC2=O)C3(C)C)cc1F (stereo partly specified) [WO2022021841, 28] | 47 nM | 4680 nM |
| CC1(C)[C@@H]2C(C(=O)N[C@H](C=O)C[C@@H]3CCNC3=O)N(C(=O)COc3ccc(Cl)c(Br)c3)C[C@@H]21 (stereo partly specified) [WO2022021841, 30] | 14 nM | 1150 nM |
| CC1(C)[C@@H]2C(C(=O)N[C@H](C=O)C[C@@H]3CCNC3=O)N(C(=O)COc3ccc(Br)cc3Cl)C[C@@H]21 (stereo partly specified) [WO2022021841, 31] | 15 nM | 1180 nM |
| CC1(C)[C@@H]2C(C(=O)N[C@H](C=O)C[C@@H]3CCNC3=O)N(C(=O)COc3ccc(F)c(F)c3)C[C@@H]21 (stereo partly specified) [WO2022021841, 33] | 13 nM | 5570 nM |
| CC1(C)[C@@H]2C(C(=O)N[C@H](C=O)C[C@@H]3CCNC3=O)N(C(=O)COc3cc(F)cc(F)c3)C[C@@H]21 (stereo partly specified) [WO2022021841, 34] | 20 nM | 1540 nM |
| CC1(C)[C@@H]2C(C(=O)N[C@H](C=O)C[C@@H]3CCNC3=O)N(C(=O)CCc3cccc(F)c3)C[C@@H]21 (stereo partly specified) [WO2022021841, 36] | 16 nM | 2230 nM |
| O=C[C@H](C[C@@H]1CCNC1=O)NC(=O)C1[C@@H]2CCC[C@H]2CN1C(=O)CCc1cccc(F)c1 (stereo partly specified) [WO2022021841, 37] | 7 nM | 2970 nM |
| CC1(C)[C@@H]2C(C(=O)N[C@H](C=O)C[C@@H]3CCNC3=O)N(C(=O)COc3ccc(Cl)cc3)C[C@@H]21 (stereo partly specified) [WO2022021841, 43] | 9 nM | 530 nM |
| CC1(C)[C@@H]2C(C(=O)N[C@H](C=O)C[C@@H]3CCNC3=O)N(C(=O)COc3ccc(Cl)cc3Cl)C[C@@H]21 (stereo partly specified) [WO2022021841, 44] | 10 nM | 660 nM |
| O=C[C@H](C[C@@H]1CCNC1=O)NC(=O)C1[C@@H]2CCC[C@H]2CN1C(=O)COc1ccc(Cl)c(Cl)c1 (stereo partly specified) [WO2022021841, 45] | 19 nM | 830 nM |
| CC(C)(OCc1ccc(F)cc1F)C(=O)N1C[C@@H]2CCC[C@H]2C1C(=O)N[C@H](C=O)C[C@@H]1CCNC1=O (stereo partly specified) [WO2022021841, 62] | 40 nM | – |
| CC(C)(CCc1ccc(Cl)c(F)c1)C(=O)N1C[C@@H]2CCC[C@H]2C1C(=O)N[C@H](C=O)C[C@@H]1CCNC1=O (stereo partly specified) [WO2022021841, 63] | 26 nM | – |

| Compound | Ki [1] | EC50 [2] |
| --- | --- | --- |
| O=C[C@H](C[C@@H]1CCNC1=O)NC(=O)C1[C@@H]2CCC[C@H]2CN1C(=O)CCc1cc(Cl)cc(Cl)c1 (stereo partly specified) [WO2022021841, 64] | 33 nM | – |
| O=C[C@H](C[C@@H]1CCNC1=O)NC(=O)C1[C@@H]2CCC[C@H]2CN1C(=O)CCc1ccc(Cl)cc1 (stereo partly specified) [WO2022021841, 65] | 44 nM | – |
| O=C[C@H](C[C@@H]1CCNC1=O)NC(=O)C1[C@@H]2CCC[C@H]2CN1C(=O)CCc1cccc(Cl)c1 (stereo partly specified) [WO2022021841, 66] | 36 nM | – |
| O=C[C@H](C[C@@H]1CCNC1=O)NC(=O)C1[C@@H]2CCC[C@H]2CN1C(=O)CCc1ccc(Cl)cc1Cl (stereo partly specified) [WO2022021841, 67] | 40 nM | – |
| O=C[C@H](C[C@@H]1CCNC1=O)NC(=O)C1[C@@H]2CCC[C@H]2CN1C(=O)CCc1ccc(Cl)c(Cl)c1 (stereo partly specified) [WO2022021841, 68] | 35 nM | – |
| CC(Oc1ccc(Cl)cc1Cl)C(=O)N1C[C@@H]2CCC[C@H]2C1C(=O)N[C@H](C=O)C[C@@H]1CCNC1=O (stereo partly specified) [WO2022021841, 69] | 107 nM | – |
| O=C[C@H](C[C@@H]1CCNC1=O)NC(=O)C1[C@@H]2CCC[C@H]2CN1C(=O)/C=C/c1ccc(Cl)cc1Cl (stereo partly specified) [WO2022021841, 70] | 81 nM | – |
| O=C[C@H](C[C@@H]1CCNC1=O)NC(=O)C1[C@@H]2CCC[C@H]2CN1C(=O)C(F)(F)Oc1ccc(Cl)cc1Cl (stereo partly specified) [WO2022021841, 71] | 40 nM | – |
| O=C[C@H](C[C@@H]1CCNC1=O)NC(=O)C1[C@@H]2CCC[C@H]2CN1C(=O)C(F)Oc1ccc(Cl)cc1Cl (stereo partly specified) [WO2022021841, 72] | 31 nM | – |
| O=C[C@H](C[C@@H]1CCNC1=O)NC(=O)C1[C@@H]2CCC[C@H]2CN1C(=O)CCc1cccc(O)c1 (stereo partly specified) [WO2022021841, 73] | 31 nM | – |
| O=C[C@H](C[C@@H]1CCNC1=O)NC(=O)C1[C@@H]2CCC[C@H]2CN1C(=O)CCc1ccc(O)cc1 (stereo partly specified) [WO2022021841, 74] | 51 nM | – |
| O=C[C@H](C[C@@H]1CCNC1=O)NC(=O)C1[C@@H]2CCC[C@H]2CN1C(=O)CCc1ccc(O)c(O)c1 (stereo partly specified) [WO2022021841, 75] | 41 nM | – |
| COc1ccc(CCC(=O)N2C[C@@H]3CCC[C@H]3C2C(=O)N[C@H](C=O)C[C@@H]2CCNC2=O)cc1 (stereo partly specified) [WO2022021841, 76] | 51 nM | – |
| COc1ccc(CCC(=O)N2C[C@@H]3CCC[C@H]3C2C(=O)N[C@H](C=O)C[C@@H]2CCNC2=O)c(Cl)c1 (stereo partly specified) [WO2022021841, 77] | 56 nM | – |
| COc1cccc(CCC(=O)N2C[C@@H]3CCC[C@H]3C2C(=O)N[C@H](C=O)C[C@@H]2CCNC2=O)c1 (stereo partly specified) [WO2022021841, 78] | 68 nM | – |
| CC1CNC(=O)[C@@H]1C[C@H](NC(=O)C1[C@H]2[C@H](CN1C(=O)COc1ccc(OC(F)(F)F)cc1)C2(C)C)C(=O)CF (stereo partly specified) [WO2022021841, 79] | 65 nM | – |
| CC1CNC(=O)[C@@H]1C[C@H](NC(=O)C1[C@@H]2CCC[C@H]2CN1C(=O)COc1ccc(OC(F)(F)F)cc1)C(=O)CF (stereo partly specified) [WO2022021841, 80] | 23 nM | – |
